Test results: ChEMBL document CHEMBL1134803, “Inhibition of fucosyltransferase V by a GDP-Azasugar” (Bioorg Med Chem Lett, 2001)

How the values were obtained:
[1] = molecular target: T1, 4-galactosyl-N-acetylglucosaminide 3-alpha-L-fucosyltransferase FUT5 (Homo sapiens, UniProt Q11128); assay: Inhibitory activity against fucosyltransferase (FucT V) in the presence of 1 mM fucosyl acceptor N-acetyllactosamine
T1 sequence (Q11128 whole entry): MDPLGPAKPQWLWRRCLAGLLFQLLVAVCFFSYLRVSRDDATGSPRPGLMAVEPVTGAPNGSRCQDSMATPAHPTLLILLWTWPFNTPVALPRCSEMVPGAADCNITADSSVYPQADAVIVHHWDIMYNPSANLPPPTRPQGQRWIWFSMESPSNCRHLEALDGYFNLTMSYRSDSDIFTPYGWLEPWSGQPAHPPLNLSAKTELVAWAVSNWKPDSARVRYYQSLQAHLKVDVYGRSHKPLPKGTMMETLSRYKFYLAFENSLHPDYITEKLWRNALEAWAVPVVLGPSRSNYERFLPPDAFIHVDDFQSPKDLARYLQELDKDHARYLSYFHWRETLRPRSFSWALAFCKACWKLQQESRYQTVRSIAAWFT

[2] = molecular target: T1, 4-galactosyl-N-acetylglucosaminide 3-alpha-L-fucosyltransferase FUT5; assay: Inhibitory activity against fucosyltransferase (FucT V) in the presence of 10 mM fucosyl acceptor N-acetyllactosamine
[3] = molecular target: T1, 4-galactosyl-N-acetylglucosaminide 3-alpha-L-fucosyltransferase FUT5; assay: Inhibitory activity against fucosyltransferase (FucT V) in the presence of fucosyl acceptor N-acetyllactosamine

Compound	IC50 [1] [µM]	IC50 [2] [µM]	IC50 [3] [µM]
C[C@@H]1N[C@H](COP(=O)(O)OP(=O)(O)OC[C@H]2O[C@@H](n3cnc4c(O)nc(N)nc43)[C@H](O)[C@@H]2O)[C@@H](O)[C@@H]1O	45	82	–
Nc1nc2c(ncn2[C@@H]2O[C@H](COP(=O)(O)OP(=O)(O)O)[C@@H](O)[C@H]2O)c(=O)[nH]1	–	–	67
NCCOP(=O)(O)OP(=O)(O)OC[C@H]1O[C@@H](n2cnc3c(O)nc(N)nc32)[C@H](O)[C@@H]1O	–	–	> 1000
